Experimental data: the supplement of paper PMC10307832

Tests used:
Assay in all cases: relative viability (nuclei count vs DMSO), 5 days (fraction); higher = more cells survive
[1] = system: SW 1573
How it was run: (§1)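 For relative viability, nuclei counts in treated wells were divided by those in vehicle wells. Lung cancer cell lines had been pin-tool dosed in 1536-well plates the day after seeding and cultured for 5 days, then fixed and stained in one step (final 0.05% Triton X-100, 1% formaldehyde, 1 ug/ml Hoechst) and imaged at 4×. Doses were one drug alone or a fixed anchor-drug dose plus five library-drug doses (not always all listed) in √10 steps, and values are duplicate-plate medians.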

[2] = system: NCI-H1734
How it was run: as §1

[3] = system: NCI-H522
How it was run: as §1

[4] = system: NCI-H2342
How it was run: as §1

[5] = system: RERF-LC-KJ
How it was run: as §1

[6] = system: NCI-H2228
How it was run: as §1

[7] = system: NCI-H1915
How it was run: as §1

[8] = system: HOP-62
How it was run: as §1

[9] = system: PC-3 [JPC-3]
How it was run: as §1

[10] = system: HCC-78
How it was run: as §1

[11] = system: NCI-H1975
How it was run: as §1

[12] = system: NCI-H1792
How it was run: as §1

[13] = system: NCI-H1755
How it was run: as §1

[14] = system: NCI-H2126
How it was run: as §1

[15] = system: HCC-15
How it was run: as §1

[16] = system: NCI-H358
How it was run: as §1

[17] = system: LXF-289
How it was run: as §1

[18] = system: NCI-H647
How it was run: as §1

[19] = system: LC-2-ad
How it was run: as §1

[20] = system: A-427
How it was run: as §1

[21] = system: SK-LU-1
How it was run: as §1

[22] = system: NCI-H2347
How it was run: as §1

O=c1cc(-c2cccc3c2Sc2ccccc2S3)oc(N2CCOCC2)c1 + Nc1nc2[nH]cc(CCc3ccc(C(=O)N[C@@H](CCC(=O)O)C(=O)O)cc3)c2c(=O)[nH]1 [Pemetrexed] (partner 0.2 µM)
relative viability ([1]; first compound 0.08 µM): 0.754 | relative viability ([1]; first compound 0.253 µM): 1.11 | relative viability ([1]; first compound 0.8 µM): 0.865 | relative viability ([1]; first compound 2.53 µM): 0.838 | relative viability ([1]; first compound 8 µM): 0.924 | relative viability ([2]; first compound 0.08 µM): 0.394 | relative viability ([2]; first compound 0.253 µM): 0.45 | relative viability ([2]; first compound 0.8 µM): 0.487 | relative viability ([2]; first compound 8 µM): 0.432 | relative viability ([3]; first compound 0.08 µM): 0.844 | relative viability ([3]; first compound 0.253 µM): 1.13 | relative viability ([3]; first compound 0.8 µM): 0.851 | relative viability ([3]; first compound 2.53 µM): 1.03 | relative viability ([3]; first compound 8 µM): 1.12 | relative viability ([4]; first compound 0.08 µM): 0.703 | relative viability ([4]; first compound 0.253 µM): 0.817 | relative viability ([4]; first compound 0.8 µM): 0.718 | relative viability ([4]; first compound 2.53 µM): 0.725 | relative viability ([4]; first compound 8 µM): 0.848 | relative viability ([5]; first compound 0.08 µM): 0.443 | relative viability ([5]; first compound 0.253 µM): 0.469 | relative viability ([5]; first compound 0.8 µM): 0.504 | relative viability ([5]; first compound 2.53 µM): 0.474 | relative viability ([5]; first compound 8 µM): 0.469 | relative viability ([6]; first compound 0.08 µM): 0.351 | relative viability ([6]; first compound 0.253 µM): 0.359 | relative viability ([6]; first compound 0.8 µM): 0.336 | relative viability ([6]; first compound 2.53 µM): 0.355 | relative viability ([6]; first compound 8 µM): 0.473 | relative viability ([7]; first compound 0.08 µM): 0.507 | relative viability ([7]; first compound 0.253 µM): 0.442 | relative viability ([7]; first compound 0.8 µM): 0.552 | relative viability ([7]; first compound 2.53 µM): 0.52 | relative viability ([7]; first compound 8 µM): 0.405 | relative viability ([8]; first compound 0.08 µM): 0.322 | relative viability ([8]; first compound 0.253 µM): 0.305 | relative viability ([8]; first compound 0.8 µM): 0.406 | relative viability ([8]; first compound 2.53 µM): 0.396 | relative viability ([8]; first compound 8 µM): 0.352 | relative viability ([9]; first compound 0.08 µM): 0.721 | relative viability ([9]; first compound 0.253 µM): 1.11 | relative viability ([9]; first compound 0.8 µM): 1.3 | relative viability ([9]; first compound 2.53 µM): 0.996 | relative viability ([9]; first compound 8 µM): 1.08 | relative viability ([10]; first compound 0.08 µM): 0.914 | relative viability ([10]; first compound 0.253 µM): 0.943 | relative viability ([10]; first compound 0.8 µM): 0.946 | relative viability ([10]; first compound 2.53 µM): 0.882 | relative viability ([10]; first compound 8 µM): 0.928 | relative viability ([11]; first compound 0.08 µM): 0.318 | relative viability ([11]; first compound 0.253 µM): 0.29 | relative viability ([11]; first compound 0.8 µM): 0.313 | relative viability ([11]; first compound 2.53 µM): 0.287 | relative viability ([11]; first compound 8 µM): 0.288 | relative viability ([12]; first compound 0.08 µM): 0.75 | relative viability ([12]; first compound 0.253 µM): 1.54 | relative viability ([12]; first compound 0.8 µM): 0.775 | relative viability ([12]; first compound 2.53 µM): 0.776 | relative viability ([12]; first compound 8 µM): 0.729 | relative viability ([13]; first compound 0.08 µM): 0.572 | relative viability ([13]; first compound 0.253 µM): 0.398 | relative viability ([13]; first compound 0.8 µM): 0.389 | relative viability ([13]; first compound 2.53 µM): 0.574 | relative viability ([13]; first compound 8 µM): 0.366 | relative viability ([14]; first compound 0.08 µM): 0.682 | relative viability ([14]; first compound 0.253 µM): 0.785 | relative viability ([14]; first compound 0.8 µM): 0.71 | relative viability ([14]; first compound 2.53 µM): 0.695 | relative viability ([14]; first compound 8 µM): 0.645 | relative viability ([15]; first compound 0.08 µM): 0.23 | relative viability ([15]; first compound 0.253 µM): 0.253 | relative viability ([15]; first compound 0.8 µM): 0.207 | relative viability ([15]; first compound 2.53 µM): 0.204 | relative viability ([15]; first compound 8 µM): 0.228 | relative viability ([16]; first compound 0.08 µM): 0.161 | relative viability ([16]; first compound 0.253 µM): 0.188 | relative viability ([16]; first compound 0.8 µM): 0.183 | relative viability ([16]; first compound 2.53 µM): 0.176 | relative viability ([16]; first compound 8 µM): 0.175 | relative viability ([17]; first compound 0.08 µM): 0.95 | relative viability ([17]; first compound 0.253 µM): 0.96 | relative viability ([17]; first compound 0.8 µM): 0.975 | relative viability ([17]; first compound 2.53 µM): 0.93 | relative viability ([17]; first compound 8 µM): 1.03 | relative viability ([18]; first compound 0.08 µM): 0.168 | relative viability ([18]; first compound 0.253 µM): 0.149 | relative viability ([18]; first compound 0.8 µM): 0.17 | relative viability ([18]; first compound 2.53 µM): 0.169 | relative viability ([18]; first compound 8 µM): 0.159 | relative viability ([19]; first compound 0.08 µM): 0.284 | relative viability ([19]; first compound 0.253 µM): 0.252 | relative viability ([19]; first compound 0.8 µM): 0.285 | relative viability ([19]; first compound 2.53 µM): 0.271 | relative viability ([19]; first compound 8 µM): 0.27 | relative viability ([20]; first compound 0.08 µM): 0.808 | relative viability ([20]; first compound 0.253 µM): 1 | relative viability ([20]; first compound 0.8 µM): 0.991 | relative viability ([20]; first compound 2.53 µM): 0.92 | relative viability ([20]; first compound 8 µM): 0.993 | relative viability ([21]; first compound 0.08 µM): 1.1 | relative viability ([21]; first compound 0.253 µM): 1.27 | relative viability ([21]; first compound 0.8 µM): 1.14 | relative viability ([21]; first compound 2.53 µM): 0.885 | relative viability ([21]; first compound 8 µM): 1.03 | relative viability ([22]; first compound 0.08 µM): 0.386 | relative viability ([22]; first compound 0.253 µM): 0.458 | relative viability ([22]; first compound 0.8 µM): 0.465 | relative viability ([22]; first compound 2.53 µM): 0.424 | relative viability ([22]; first compound 8 µM): 0.435
